# Data published in patent EP3064205A1, “Therapeutic use of isomeric forms of 2-(4-chlorophenyl)quinolin-4-yl)(piperidin-2-yl)methanol” (Glionova AB, priority 2015, dated 2016).
# Tests used:
# Assay type in all cases: cell-based, human
# Panc-1 cells [1] = assay: APH cell viability assay, 2D culture; details: Panc-1, 2D culture, 30 µM
# Excerpt: (§1) The following well-characterized human pancreatic ductal adenocarcinoma cell lines (ATCC) were used: HPAF II, BxPC-3, MIA-PaCa2 and Panc-1. These cell lines were generated from patient-derived tumors and are widely used model system to study pancreatic cancer (HPAF II: Kim YW, et al. Pancreas 4: 353-362, 1989; BxPC-3: Tan MH, et al. Cancer Invest. 4: 15-23, 1986; MIA-PaCa2: Yunis AA, et al. Int. J. Cancer 19: 128-135, 1977; Pacn-1: Lieber M, et al. Int. J. Cancer 15: 741-747, 1975).
# For 2D culture, cells were seeded on flat bottom 96 well plates (Costar) at a concentration of 2500 cells/well in 100 µl phenol red-free RPMI-F12 medium containing 10% FCS. For 3D culture, cells were seeded according to the description for spheroid preparation in phenol-free medium. On day 4 Vacquinol-1 RS (S1) was added at the indicated final concentrations in an extra volume of 10 µl/well and in 8 replicates for each time point. On day 7, an APH assay (See below) was performed. The viability rate was calculated as a percentage of the untreated cells. All data were expressed as the mean ± SD of at least 8 replicates. To confirm the reliability of the APH assay on 2D culture, cell viability was measured using CellTiter-Glo assay (Promega).
# The APH assay, which measures the activity of acidic phosphatase in the cells, was optimized for 3D cultures as follows. Only 70µl of medium was removed in order not to suck up the spheres. Then 60µl of PBS was added per well and 100µl of APH buffer (0.1 M sodium acetate pH 5.2 and 0.1 % triton X-100) containing the substrate (2mg/ml p-nitrophenyl phosphate, final pH 4.8 from Thermo Scientific). After 2 hours incubation for the 2D culture and 5 hours for the 3D culture, 10µl of 1 M NaOH was added to stop the APH activity. Absorbance at 405nm was measured within 10 minutes using a FluoStar OPTIMA plate reader (BMG Labtech). Viability rate was calculated as per cent of CTR untreated cells. All data are expressed as the mean ± SD of at least 8 replicates.
# HPAF II cells = assay: ATP viability assay (CellTiter-Glo), 3D culture, automatic drug screen; details: 72 h, 30-10 µM
# Excerpt: as §1
# (§2) Panc-1, HPAF II, KPC pancreatic adenocarcinoma cell lines were trypsin-treated and counted using the Casy Cell Counter according to the manufacturer's recommendations (GmbH). Subsequently, they were seeded onto round bottom non-tissue culture treated 96 well-plates (Falcon, BD NJ, USA) at a concentration of 2500 cells/well in 100 µl DMEM-F12 or phenol red-free DMEM-F12 medium, containing 10% FCS and supplemented with 20% methyl cellulose stock solution. For preparation of methylcellulose stock solution, 6 grams of methylcellulose powder (M0512, Sigma-Aldrich) was autoclaved in a 500 ml flask containing a magnetic stirrer (the methylcellulose powder is resistant to this procedure). The autoclaved methylcellulose was dissolved in preheated 250 ml basal medium (60°C) for 20 min (using the magnetic stirrer). Thereafter, 250 ml medium (room temperature) containing double amount of FCS (20%) was added to a final volume of 500 ml and the whole solution mixed overnight at 4°C. The final stock solution was aliquoted and cleared by centrifugation (5000g, 2 h, room temperature). Only the clear highly viscous supernatant was used for the spheroid assay (about 90-95% of the stock solution). […]
# (§3) In order to confirm the results presented in figure 1, S1 was further tested in 2 different cell lines in 3D culture format, using an automatic drug screening assay. The effect of Vacquinol-1 RS (S1) on cell viability was measured after 72h using the CellTiter-Glo assay (Promega) adapted for 3D culture.
# Panc-1 cells [2] = assay: as above; details: Panc-1, 3D culture, 72 h
# Excerpt: as §1, §2, §3
compound,measurement,setting,value
"O[C@H](c1cc(-c2ccc(Cl)cc2)nc2ccccc12)[C@@H]1CCCCN1 [S1, (R)-(2-(4-chlorophenyl)quinolin-4-yl)((S)-piperidin-2-yl)methanol]",decrease in cell viability,Panc-1 cells [1]; 24h,43%
same,decrease in cell viability,Panc-1 cells [1]; 48h,63%
same,decrease in cell viability,Panc-1 cells [1]; 72h,70%
same,viability compared to control,HPAF II cells,marked decrease in viability
same,decrease in viability,Panc-1 cells [2]; 20-10 µM,~20%
same,viability compared to control,Panc-1 cells [2]; 30 and 25 µM,marked decrease in viability
